One block for each compound: values may come before it. Activity calls are given as the source filed them. The calls are words filed in the database; no cut-off is given here.
Key:
[1] = Selectivity index, ratio of IC50 for cytotoxicity against THLE-2 cells to IC50 for antitumor activity against human HepG2 cells; assay type: cell-based; details: THLE-2 cells versus HepG2 cells, read-out: Ratio IC50
[2] = Cytotoxicity against THLE-2 cells measured after 48 hrs by MTT assay; assay type: toxicity, cell-based; details: human
[3] = target: Signal transducer and activator of transcription 3 (Homo sapiens) (UniProt P40763); assay: Inhibition of STAT3 (unknown origin) using TMB as substrate assessed as reduction in phosphorylated STAT3 at Y705 residue at 10 uM incubated for 5 hrs by ELISA (reference value: 14.53 +/- 0.4 ng/ml)
Sequence of Signal transducer and activator of transcription 3 (Homo sapiens) (P40763 whole entry): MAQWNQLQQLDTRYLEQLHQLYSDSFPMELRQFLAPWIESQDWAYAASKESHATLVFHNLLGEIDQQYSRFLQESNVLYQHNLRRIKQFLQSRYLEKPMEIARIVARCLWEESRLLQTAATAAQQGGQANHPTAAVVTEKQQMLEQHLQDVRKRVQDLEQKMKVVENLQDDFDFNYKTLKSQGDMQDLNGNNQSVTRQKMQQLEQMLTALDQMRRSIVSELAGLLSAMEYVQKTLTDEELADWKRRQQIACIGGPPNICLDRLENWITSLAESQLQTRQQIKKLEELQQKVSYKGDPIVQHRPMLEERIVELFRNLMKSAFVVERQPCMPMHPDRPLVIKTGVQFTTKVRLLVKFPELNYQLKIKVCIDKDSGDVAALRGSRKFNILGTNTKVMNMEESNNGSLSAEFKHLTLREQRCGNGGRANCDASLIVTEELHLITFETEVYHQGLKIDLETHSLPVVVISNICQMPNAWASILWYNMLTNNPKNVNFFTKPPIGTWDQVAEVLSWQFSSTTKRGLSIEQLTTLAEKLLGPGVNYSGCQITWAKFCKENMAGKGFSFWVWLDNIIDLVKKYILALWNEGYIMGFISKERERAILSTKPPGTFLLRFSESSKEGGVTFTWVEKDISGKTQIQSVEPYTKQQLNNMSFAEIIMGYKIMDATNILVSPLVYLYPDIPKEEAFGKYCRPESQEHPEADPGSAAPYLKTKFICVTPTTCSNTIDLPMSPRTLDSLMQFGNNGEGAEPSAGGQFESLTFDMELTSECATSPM

[4] = target: T1, Signal transducer and activator of transcription 5A (Homo sapiens) (UniProt P42229); assay: Inhibition of STAT5a (unknown origin) using TMB as substrate assessed as reduction in phosphorylated STAT5a at Y694 residue at 10 uM incubated for 1.5 hrs by ELISA (reference value: 11.15 +/- 0.91 ng/ml)
T1 sequence (whole entry): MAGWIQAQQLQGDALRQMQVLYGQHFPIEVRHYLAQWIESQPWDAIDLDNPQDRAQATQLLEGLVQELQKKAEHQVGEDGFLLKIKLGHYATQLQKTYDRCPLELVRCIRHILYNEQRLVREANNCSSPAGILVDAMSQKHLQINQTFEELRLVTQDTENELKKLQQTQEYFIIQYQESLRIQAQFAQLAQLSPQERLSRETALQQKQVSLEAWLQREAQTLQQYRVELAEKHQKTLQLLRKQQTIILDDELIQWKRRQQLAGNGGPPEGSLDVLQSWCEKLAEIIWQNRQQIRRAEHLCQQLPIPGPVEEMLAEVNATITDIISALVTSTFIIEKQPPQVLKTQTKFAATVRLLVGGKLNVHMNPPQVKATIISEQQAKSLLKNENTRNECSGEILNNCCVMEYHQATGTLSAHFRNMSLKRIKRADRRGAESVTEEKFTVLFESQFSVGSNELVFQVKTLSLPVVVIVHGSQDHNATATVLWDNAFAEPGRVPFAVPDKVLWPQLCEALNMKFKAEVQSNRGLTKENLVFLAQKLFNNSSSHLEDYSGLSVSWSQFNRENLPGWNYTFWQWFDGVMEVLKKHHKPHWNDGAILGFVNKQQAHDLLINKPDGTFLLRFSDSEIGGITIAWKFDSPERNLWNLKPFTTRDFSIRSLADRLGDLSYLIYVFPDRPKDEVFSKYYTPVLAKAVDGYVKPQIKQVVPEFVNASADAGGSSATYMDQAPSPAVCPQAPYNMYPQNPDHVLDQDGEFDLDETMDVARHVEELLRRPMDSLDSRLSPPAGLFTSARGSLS

[5] = target: T1, Signal transducer and activator of transcription 5A (Homo sapiens); assay: Inhibition of STAT5a (unknown origin) using TMB as substrate assessed as reduction in phosphorylated STAT5a at Y694 residue by measuring fold change at 10 uM incubated for 1.5 hrs by ELISA relative to control
[6] = target: Signal transducer and activator of transcription 3 (Homo sapiens) (UniProt P40763); assay: Inhibition of STAT3 (unknown origin) using TMB as substrate assessed as reduction in phosphorylated STAT3 at Y705 residue by measuring fold change at 10 uM incubated for 5 hrs by ELISA relative to control
HepG2 [7] = assay: Antitumor activity against human HepG2 cells measured after 48 hrs by MTT assay; assay type: functional, cell-based; details: HepG2, 48 h
Huh-7 [8] = assay: Antitumor activity against human Huh7 cells measured after 48 hrs by MTT assay; assay type: functional, cell-based; details: Huh-7, 48 h
[9] = Selectivity index, ratio of IC50 for cytotoxicity against THLE-2 cells to IC50 for antitumor activity against human Huh-7 cells; assay type: cell-based; details: THLE-2 cells versus Huh-7 cells, read-out: Ratio IC50
[10] = target: T1, Signal transducer and activator of transcription 5A (Homo sapiens); assay: Inhibition of STAT5a (unknown origin) using TMB as substrate assessed as reduction in phosphorylated STAT5a at Y694 residue incubated for 1.5 hrs by ELISA (reference value: 11.15 +/- 0.91 ng/ml)
[11] = target: Signal transducer and activator of transcription 3 (Homo sapiens) (UniProt P40763); assay: Inhibition of STAT3 (unknown origin) using TMB as substrate assessed as reduction in phosphorylated STAT3 at Y705 residue incubated for 5 hrs by ELISA (reference value: 14.53 +/- 0.4 ng/ml)
HepG2 [12] = assay: Potency index, ratio of doxorubicin IC50 to test compound IC50 for antitumor activity against human HepG2 cells incubated for 48 hrs by MTT assay; assay type: functional
Huh-7 [13] = assay: Potency index, ratio of static IC50 to test compound IC50 for antitumor activity against human Huh-7 cells incubated for 48 hrs by MTT assay; assay type: functional
HepG2 [14] = assay: Inhibition of STAT5 phosphorylation at Tyr694 residue in human HepG2 cells incubated for 24 hrs by Western blot analysis; assay type: cell-based
[15] = target: Signal transducer and activator of transcription 3 (Homo sapiens) (UniProt P40763); assay: Inhibition of STAT3 phosphorylation at Tyr705 residue in human HepG2 cells incubated for 24 hrs by Western blot analysis; assay type: cell-based
Huh-7 [16] = assay: Potency index, ratio of doxorubicin IC50 to test compound IC50 for antitumor activity against human Huh-7 cells incubated for 48 hrs by MTT assay; assay type: functional
HepG2 [17] = assay: Effect on total STAT3 protein level in human HepG2 cells incubated for 24 hrs by Western blot analysis; assay type: functional, cell-based
HepG2 [18] = assay: Potency index, ratio of stattic IC50 to test compound IC50 for antitumor activity against human HepG2 cells incubated for 48 hrs by MTT assay; assay type: functional
[19] = target: T2, Signal transducer and activator of transcription 1-alpha/beta (Homo sapiens) (UniProt P42224); assay: Inhibition of STAT1 in human HepG2 cells assessed as reduction in STAT1 phosphorylation at Tyr701 residue incubated for 24 hrs by Western blot analysis; assay type: cell-based
T2 sequence (whole entry): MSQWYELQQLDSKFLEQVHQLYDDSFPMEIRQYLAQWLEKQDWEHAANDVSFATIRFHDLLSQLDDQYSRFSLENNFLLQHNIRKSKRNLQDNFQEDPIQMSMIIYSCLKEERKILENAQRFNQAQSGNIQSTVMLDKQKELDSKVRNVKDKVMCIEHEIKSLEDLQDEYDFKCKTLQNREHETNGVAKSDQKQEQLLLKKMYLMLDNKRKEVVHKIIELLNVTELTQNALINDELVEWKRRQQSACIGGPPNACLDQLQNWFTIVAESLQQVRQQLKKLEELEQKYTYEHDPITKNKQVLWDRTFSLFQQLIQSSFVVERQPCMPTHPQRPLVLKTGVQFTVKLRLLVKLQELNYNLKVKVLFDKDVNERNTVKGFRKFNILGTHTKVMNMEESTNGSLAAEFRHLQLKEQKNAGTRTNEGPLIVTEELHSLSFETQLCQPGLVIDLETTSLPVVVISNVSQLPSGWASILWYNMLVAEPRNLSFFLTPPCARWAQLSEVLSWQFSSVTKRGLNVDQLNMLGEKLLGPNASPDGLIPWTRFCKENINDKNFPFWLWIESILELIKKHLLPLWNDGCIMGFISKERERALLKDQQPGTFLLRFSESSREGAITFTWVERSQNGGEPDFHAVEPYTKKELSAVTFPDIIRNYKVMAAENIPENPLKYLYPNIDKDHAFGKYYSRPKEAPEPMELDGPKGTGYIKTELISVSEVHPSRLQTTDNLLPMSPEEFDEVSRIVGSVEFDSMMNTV

HepG2 [20] = assay: Effect on total STAT5 protein level in human HepG2 cells incubated for 24 hrs by Western blot analysis; assay type: functional, cell-based

SMILES: Cc1ccc(/C=C/C(=O)c2ccc(NC(=O)CSc3nc(N)cc(=O)[nH]3)cc2)cc1
selectivity ratio [1]: 19.2
IC50 at 48 h [2]: 49.5 µM
Activity [3]: 5.09 ng/mL
Activity [4]: 4.44 ng/mL
fold change (FC) [5]: 2.5
fold change (FC) [6]: 2.8
IC50 (HepG2 [7]): 2.58 µM
IC50 (Huh-7 [8]): 2.44 µM
selectivity ratio [9]: 20.3

SMILES: COc1cc(/C=C/C(=O)c2ccc(NC(=O)CSc3nc(N)cc(=O)[nH]3)cc2)cc(OC)c1
IC50 (HepG2 [7]): 5.08 µM
IC50 (Huh-7 [8]): 1.58 µM

SMILES: Nc1cc(=O)[nH]c(SCC(=O)Nc2ccc(C(=O)/C=C/c3ccc(Cl)cc3)cc2)n1
IC50 (HepG2 [7]): 11.2 µM
IC50 (Huh-7 [8]): 7.27 µM

SMILES: CN(C)c1ccc(/C=C/C(=O)c2ccc(NC(=O)CSc3nc(N)cc(=O)[nH]3)cc2)cc1
IC50 (HepG2 [7]): 31.1 µM
IC50 (Huh-7 [8]): 23.1 µM

SMILES: Nc1cc(=O)[nH]c(SCC(=O)Nc2ccc(C(=O)/C=C/c3ccc(Cl)cc3Cl)cc2)n1
IC50 (HepG2 [7]): 4.94 µM
IC50 (Huh-7 [8]): 8.32 µM

SMILES: COc1cc(/C=C/C(=O)c2ccc(NC(=O)CSc3nc(N)cc(=O)[nH]3)cc2)cc(OC)c1OC
selectivity ratio [1]: 32.4
IC50 at 48 h [2]: 63.2 µM
Activity [3]: 3.19 ng/mL
Ratio IC50 (HepG2 [12]): 3.7
Activity [4]: 2.28 ng/mL
fold change (FC) [5]: 4.8
fold change (FC) [6]: 4.5
IC50 (HepG2 [7]): 1.95 µM
Ratio IC50 (Huh-7 [13]): 14.3
IC50 (Huh-7 [8]): 0.55 µM
inhibition (HepG2 [14]): Active
inhibition [15]: Active
selectivity ratio [9]: 115
Ratio IC50 (Huh-7 [16]): 10.4
Activity (HepG2 [17]): inactive
Ratio IC50 (HepG2 [18]): 4.2
inhibition [19]: inactive
Activity (HepG2 [20]): inactive

Now from value to compound, other results behind:

IC50 (HepG2 [7]): 8.14 µM
IC50 (Huh-7 [8]): 6.7 µM
SMILES: COc1ccc(/C=C/C(=O)c2ccc(NC(=O)CSc3nc(N)cc(=O)[nH]3)cc2)cc1

Activity [10]: 9.43 ng/mL
Activity [11]: 4.9 ng/mL
IC50 (HepG2 [7]): 8.35 µM
IC50 (Huh-7 [8]): 7.89 µM
SMILES: O=[N+]([O-])c1ccc2c(c1)S(=O)(=O)C=C2
IC50 at 48 h [2]: > 100 µM

IC50 (HepG2 [7]): 22.6 µM
IC50 (Huh-7 [8]): 25 µM
SMILES: Nc1cc(=O)[nH]c(SCC(=O)Nc2ccc(C(=O)/C=C/c3ccc(F)cc3)cc2)n1

IC50 (HepG2 [7]): 3.57 µM
IC50 (Huh-7 [8]): 2.17 µM
SMILES: Nc1cc(=O)[nH]c(SCC(=O)Nc2ccc(C(=O)/C=C/c3ccccc3Cl)cc2)n1

IC50 (HepG2 [7]): 7.34 µM
IC50 (Huh-7 [8]): 5.7 µM
SMILES: COc1cccc2c1C(=O)c1c(O)c3c(c(O)c1C2=O)C[C@@](O)(C(=O)CO)C[C@@H]3O[C@H]1C[C@H](N)[C@H](O)[C@H](C)O1 [DOXORUBICIN]
